The text below walks through data of publication PMC9030254, “Target Hopping from Protein Kinases to PXR: Identification of Small-Molecule Protein Kinase Inhibitors as Selective Modulators of Pregnane X Receptor from TüKIC Library” (Cells, 2022).

Holding throughout (test): Kinase profiling
Common to all, as to assay type: biochemical

In assay [1] the target is T1, ACVR2A (Homo sapiens, UniProt P27037).
T1 construct: purchased ProQinase (Freiburg, Germany)
As to the method: (§1) The analysis was performed by ProQinase (Freiburg, Germany).

Assay [2] addresses T2, MAP3K10 (Homo sapiens, UniProt Q02779).
T2 construct: purchased ProQinase (Freiburg, Germany)
As to the method: as §1

Assay [3] addresses T3, ERK2 (Homo sapiens, UniProt P28482).
T3 construct: purchased ProQinase (Freiburg, Germany)
As to the method: as §1

Assay [4] concerns the target T4, PYK2 (Homo sapiens, UniProt Q14289).
T4 construct: purchased ProQinase (Freiburg, Germany)
The protocol:
as §1

Assay [5] concerns the target T5, TGFBR1 (Homo sapiens, UniProt P36897).
T5 construct: purchased ProQinase (Freiburg, Germany)
T5 sequence (P36897 34-503): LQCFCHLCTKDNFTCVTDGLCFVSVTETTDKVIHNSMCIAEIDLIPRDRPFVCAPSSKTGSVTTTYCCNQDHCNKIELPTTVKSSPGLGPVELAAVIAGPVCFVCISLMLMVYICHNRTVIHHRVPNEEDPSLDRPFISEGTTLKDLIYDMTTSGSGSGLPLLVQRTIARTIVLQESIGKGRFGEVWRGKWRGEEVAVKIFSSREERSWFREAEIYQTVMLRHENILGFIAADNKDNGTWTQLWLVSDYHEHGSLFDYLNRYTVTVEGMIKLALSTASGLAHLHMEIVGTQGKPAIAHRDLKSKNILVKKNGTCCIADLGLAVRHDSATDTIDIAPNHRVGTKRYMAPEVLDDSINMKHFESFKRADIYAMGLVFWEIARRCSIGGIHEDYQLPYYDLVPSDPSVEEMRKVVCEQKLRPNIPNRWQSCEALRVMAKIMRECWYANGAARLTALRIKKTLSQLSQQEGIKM
The protocol: as §1

The target in assay [6] is T6, CDK3/CycE1 (Homo sapiens, UniProt Q00526).
T6 construct: purchased ProQinase (Freiburg, Germany)
T6 sequence (Q00526 whole entry): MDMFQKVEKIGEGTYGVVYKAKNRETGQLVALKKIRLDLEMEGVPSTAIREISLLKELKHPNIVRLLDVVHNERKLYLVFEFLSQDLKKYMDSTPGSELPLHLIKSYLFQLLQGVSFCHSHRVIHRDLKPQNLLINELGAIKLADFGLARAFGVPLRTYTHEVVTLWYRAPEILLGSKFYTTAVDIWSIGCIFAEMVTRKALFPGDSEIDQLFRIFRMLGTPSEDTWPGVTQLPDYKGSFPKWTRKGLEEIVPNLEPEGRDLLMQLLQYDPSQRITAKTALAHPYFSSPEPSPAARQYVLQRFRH
T6 sequence (P24864 whole entry partner): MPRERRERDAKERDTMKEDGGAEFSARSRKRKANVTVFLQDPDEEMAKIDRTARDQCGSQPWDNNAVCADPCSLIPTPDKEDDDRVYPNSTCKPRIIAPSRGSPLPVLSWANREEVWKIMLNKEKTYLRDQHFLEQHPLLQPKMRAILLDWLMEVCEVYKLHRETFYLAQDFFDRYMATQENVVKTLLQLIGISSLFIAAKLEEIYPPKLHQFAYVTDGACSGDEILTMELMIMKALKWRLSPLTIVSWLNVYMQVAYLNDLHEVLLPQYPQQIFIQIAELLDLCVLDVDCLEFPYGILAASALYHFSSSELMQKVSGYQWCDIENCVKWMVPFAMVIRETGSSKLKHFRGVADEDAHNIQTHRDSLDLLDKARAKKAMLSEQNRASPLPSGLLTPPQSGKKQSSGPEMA
The protocol:
as §1

In assay [7] the target is T7, PAK1 (Homo sapiens, UniProt Q13153).
T7 construct: purchased ProQinase (Freiburg, Germany)
T7 sequence (Q13153 whole entry): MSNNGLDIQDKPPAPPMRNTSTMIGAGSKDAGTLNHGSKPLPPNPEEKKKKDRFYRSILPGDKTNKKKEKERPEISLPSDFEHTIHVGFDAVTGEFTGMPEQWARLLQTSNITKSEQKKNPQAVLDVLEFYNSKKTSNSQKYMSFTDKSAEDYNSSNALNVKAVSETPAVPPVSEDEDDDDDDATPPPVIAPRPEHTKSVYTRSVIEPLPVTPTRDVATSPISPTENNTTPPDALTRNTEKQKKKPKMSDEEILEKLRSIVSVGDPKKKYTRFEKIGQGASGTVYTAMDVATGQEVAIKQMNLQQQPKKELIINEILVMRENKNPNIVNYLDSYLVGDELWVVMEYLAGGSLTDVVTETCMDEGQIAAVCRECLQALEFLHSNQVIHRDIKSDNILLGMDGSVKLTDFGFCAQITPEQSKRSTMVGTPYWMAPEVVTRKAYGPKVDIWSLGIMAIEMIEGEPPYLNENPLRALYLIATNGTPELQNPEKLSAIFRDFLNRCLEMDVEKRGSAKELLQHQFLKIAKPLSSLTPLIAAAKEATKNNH
The protocol: as §1

The target of assay [8] is T8, CDK6/CycD3 (Homo sapiens, UniProt Q00534).
T8 construct: purchased ProQinase (Freiburg, Germany)
T8 sequence (Q00534 whole entry): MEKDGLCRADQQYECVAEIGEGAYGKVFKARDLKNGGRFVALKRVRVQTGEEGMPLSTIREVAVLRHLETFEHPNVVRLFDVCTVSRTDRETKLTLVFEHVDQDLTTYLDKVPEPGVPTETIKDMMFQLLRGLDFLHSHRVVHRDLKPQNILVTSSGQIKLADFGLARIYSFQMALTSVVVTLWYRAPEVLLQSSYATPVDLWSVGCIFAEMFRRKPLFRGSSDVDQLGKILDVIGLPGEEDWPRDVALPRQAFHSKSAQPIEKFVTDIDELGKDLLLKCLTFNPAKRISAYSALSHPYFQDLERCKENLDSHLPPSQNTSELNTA
T8 sequence (P30281 whole entry partner): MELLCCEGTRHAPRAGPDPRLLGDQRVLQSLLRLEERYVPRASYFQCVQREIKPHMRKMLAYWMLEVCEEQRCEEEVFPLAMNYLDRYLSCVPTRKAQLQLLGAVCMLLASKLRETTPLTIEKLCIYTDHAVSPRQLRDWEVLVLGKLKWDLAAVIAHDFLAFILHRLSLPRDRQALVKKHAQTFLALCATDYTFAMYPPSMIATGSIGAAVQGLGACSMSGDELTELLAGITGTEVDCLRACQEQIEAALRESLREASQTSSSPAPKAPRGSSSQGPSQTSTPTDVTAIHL
The protocol:
as §1

Assay [9] concerns the target T9, RIPK4 (Homo sapiens, UniProt P57078).
T9 construct: purchased ProQinase (Freiburg, Germany)
T9 sequence (P57078 1-832): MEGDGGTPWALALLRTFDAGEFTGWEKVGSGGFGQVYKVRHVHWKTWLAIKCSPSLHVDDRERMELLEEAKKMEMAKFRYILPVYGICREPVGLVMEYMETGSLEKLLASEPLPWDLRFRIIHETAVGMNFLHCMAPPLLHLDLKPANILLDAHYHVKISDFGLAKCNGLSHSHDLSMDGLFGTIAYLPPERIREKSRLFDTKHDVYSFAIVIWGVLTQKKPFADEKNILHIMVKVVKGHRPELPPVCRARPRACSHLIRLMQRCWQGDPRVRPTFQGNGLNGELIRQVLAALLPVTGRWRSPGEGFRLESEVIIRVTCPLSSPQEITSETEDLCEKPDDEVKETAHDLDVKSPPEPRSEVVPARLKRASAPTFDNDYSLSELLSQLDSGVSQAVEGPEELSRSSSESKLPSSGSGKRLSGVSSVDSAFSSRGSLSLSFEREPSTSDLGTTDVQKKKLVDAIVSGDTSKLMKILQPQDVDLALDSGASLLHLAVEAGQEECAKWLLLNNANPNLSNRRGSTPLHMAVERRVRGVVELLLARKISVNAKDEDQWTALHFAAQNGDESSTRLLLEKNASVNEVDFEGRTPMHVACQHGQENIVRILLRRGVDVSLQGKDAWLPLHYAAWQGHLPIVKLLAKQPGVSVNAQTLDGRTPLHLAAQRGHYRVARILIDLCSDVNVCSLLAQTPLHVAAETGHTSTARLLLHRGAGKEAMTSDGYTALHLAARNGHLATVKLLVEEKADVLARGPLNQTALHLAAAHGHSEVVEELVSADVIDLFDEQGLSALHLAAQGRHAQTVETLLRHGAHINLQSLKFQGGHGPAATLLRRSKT
The protocol: as §1

Assay [10] concerns the target T10, ACVR1B (Homo sapiens, UniProt P36896).
T10 construct: purchased ProQinase (Freiburg, Germany)
T10 sequence (P36896 24-505): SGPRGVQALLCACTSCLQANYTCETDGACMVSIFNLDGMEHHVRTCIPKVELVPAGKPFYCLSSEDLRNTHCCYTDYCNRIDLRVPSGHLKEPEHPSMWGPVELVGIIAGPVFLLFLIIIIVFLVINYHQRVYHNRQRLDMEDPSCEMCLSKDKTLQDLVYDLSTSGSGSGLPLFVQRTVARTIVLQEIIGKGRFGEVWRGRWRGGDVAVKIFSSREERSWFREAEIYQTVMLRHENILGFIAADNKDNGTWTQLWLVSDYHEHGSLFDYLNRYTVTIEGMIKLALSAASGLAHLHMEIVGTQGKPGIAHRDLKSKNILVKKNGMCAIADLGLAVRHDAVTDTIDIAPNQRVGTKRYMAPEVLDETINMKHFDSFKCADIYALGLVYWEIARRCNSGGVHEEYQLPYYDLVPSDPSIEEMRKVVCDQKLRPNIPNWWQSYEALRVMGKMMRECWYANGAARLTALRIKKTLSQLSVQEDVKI
As to the method: as §1

T1 sequence (P27037 20-513): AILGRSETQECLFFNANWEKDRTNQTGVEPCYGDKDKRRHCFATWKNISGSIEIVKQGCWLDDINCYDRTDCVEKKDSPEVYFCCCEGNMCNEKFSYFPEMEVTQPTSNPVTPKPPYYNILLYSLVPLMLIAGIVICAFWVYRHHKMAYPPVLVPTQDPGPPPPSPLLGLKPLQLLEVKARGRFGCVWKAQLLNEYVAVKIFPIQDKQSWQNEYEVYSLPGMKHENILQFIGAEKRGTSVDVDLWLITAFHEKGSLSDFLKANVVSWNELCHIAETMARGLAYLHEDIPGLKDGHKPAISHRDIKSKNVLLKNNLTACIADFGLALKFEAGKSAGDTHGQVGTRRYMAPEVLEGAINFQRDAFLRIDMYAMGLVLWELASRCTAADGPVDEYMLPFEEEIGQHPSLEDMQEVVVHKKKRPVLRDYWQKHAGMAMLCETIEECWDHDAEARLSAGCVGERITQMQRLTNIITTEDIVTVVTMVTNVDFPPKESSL
T2 sequence (Q02779 whole entry): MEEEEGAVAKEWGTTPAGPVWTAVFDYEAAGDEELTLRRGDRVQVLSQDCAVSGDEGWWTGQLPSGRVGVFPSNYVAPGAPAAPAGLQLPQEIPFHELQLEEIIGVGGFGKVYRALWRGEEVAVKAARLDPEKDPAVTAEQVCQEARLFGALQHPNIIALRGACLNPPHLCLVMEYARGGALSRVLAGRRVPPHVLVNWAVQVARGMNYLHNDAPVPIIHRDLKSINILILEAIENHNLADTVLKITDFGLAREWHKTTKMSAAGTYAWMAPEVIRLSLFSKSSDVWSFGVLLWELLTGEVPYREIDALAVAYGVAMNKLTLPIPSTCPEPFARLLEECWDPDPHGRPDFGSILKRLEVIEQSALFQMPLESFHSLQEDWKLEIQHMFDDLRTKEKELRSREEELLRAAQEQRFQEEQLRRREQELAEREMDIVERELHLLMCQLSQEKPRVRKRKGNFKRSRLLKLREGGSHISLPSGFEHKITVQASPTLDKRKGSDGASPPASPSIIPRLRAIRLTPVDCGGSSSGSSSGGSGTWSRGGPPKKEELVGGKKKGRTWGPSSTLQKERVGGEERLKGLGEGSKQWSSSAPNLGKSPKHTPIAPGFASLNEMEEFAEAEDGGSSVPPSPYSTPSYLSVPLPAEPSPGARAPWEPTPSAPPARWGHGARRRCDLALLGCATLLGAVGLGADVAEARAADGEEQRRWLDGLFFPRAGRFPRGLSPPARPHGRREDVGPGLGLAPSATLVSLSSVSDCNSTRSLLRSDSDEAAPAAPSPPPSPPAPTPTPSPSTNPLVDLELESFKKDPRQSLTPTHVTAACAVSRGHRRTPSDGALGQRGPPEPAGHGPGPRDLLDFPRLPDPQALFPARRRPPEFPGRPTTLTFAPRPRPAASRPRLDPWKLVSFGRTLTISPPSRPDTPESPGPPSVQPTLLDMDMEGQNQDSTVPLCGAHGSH
T3 sequence (P28482 whole entry): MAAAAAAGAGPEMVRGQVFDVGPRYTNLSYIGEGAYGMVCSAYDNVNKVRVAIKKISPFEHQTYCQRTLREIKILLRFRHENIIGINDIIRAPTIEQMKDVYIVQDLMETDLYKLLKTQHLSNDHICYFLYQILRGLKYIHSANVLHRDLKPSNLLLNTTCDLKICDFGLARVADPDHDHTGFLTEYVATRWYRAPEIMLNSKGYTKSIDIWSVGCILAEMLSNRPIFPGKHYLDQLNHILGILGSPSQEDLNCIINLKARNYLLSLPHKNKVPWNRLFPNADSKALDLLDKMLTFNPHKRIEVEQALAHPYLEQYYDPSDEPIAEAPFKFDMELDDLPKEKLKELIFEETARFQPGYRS
T4 sequence (Q14289 whole entry): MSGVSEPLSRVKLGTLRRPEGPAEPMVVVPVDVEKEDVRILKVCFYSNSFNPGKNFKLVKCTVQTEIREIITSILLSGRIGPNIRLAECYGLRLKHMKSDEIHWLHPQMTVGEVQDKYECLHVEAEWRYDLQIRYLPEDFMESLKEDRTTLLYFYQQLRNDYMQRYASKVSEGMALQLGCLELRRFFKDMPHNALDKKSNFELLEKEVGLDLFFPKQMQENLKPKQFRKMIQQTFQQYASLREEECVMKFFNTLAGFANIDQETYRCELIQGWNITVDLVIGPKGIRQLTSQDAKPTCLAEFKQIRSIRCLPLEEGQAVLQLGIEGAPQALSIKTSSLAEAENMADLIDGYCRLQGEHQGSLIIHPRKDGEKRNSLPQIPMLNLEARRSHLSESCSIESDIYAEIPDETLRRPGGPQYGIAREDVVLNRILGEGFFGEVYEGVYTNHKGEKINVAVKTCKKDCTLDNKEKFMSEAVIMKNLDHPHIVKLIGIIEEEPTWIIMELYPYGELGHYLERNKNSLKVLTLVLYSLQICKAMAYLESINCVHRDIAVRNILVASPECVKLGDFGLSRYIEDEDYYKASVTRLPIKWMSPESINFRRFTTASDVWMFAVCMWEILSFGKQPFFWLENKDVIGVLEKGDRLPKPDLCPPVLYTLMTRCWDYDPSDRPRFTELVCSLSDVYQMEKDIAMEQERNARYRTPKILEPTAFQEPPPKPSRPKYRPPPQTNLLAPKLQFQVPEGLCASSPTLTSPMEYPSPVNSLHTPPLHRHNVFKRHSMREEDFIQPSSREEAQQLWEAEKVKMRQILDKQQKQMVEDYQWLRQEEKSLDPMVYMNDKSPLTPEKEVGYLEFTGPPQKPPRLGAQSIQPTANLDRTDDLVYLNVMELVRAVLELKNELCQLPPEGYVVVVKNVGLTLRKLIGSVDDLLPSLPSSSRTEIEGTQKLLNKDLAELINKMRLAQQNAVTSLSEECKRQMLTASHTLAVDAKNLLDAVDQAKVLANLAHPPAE

Consider `O=C(Cc1ccccc1)Nc1ccc(F)c(Nc2ccc3c(c2)CCCCC3=O)c1` [Compound 100], for which the Residual activity in [1] (1.0E-05 M) is listed as 95 % of control; in [1] (1.0E-06 M), 89 % of control; in [2] (1.0E-05 M), 84 % of control; in [2] (1.0E-06 M), 106 % of control; in assay [3] (1.0E-05 M) it was 90 % of control; in assay [3] (1.0E-06 M) it was 101 % of control. For the same compound, the Residual activity in assay [4] (1.0E-05 M) was 79 % of control; in [4] (1.0E-06 M), 108 % of control; in assay [5] (1.0E-05 M), 88 % of control; in [5] (1.0E-06 M), 95 % of control; in [6] (1.0E-05 M) it was 80 % of control; in assay [6] (1.0E-06 M), 90 % of control. Also, the Residual activity in [7] (1.0E-05 M) is 88 % of control; in assay [7] (1.0E-06 M) it was 87 % of control; in assay [8] (1.0E-05 M) it was 92 % of control; in [8] (1.0E-06 M) it was 90 % of control; in assay [9] (1.0E-05 M), 98 % of control; in assay [9] (1.0E-06 M), 103 % of control. For the same compound, the Residual activity in assay [10] (1.0E-05 M) is listed as 90 % of control; in assay [10] (1.0E-06 M), 92 % of control.

As for `O=C(Nc1ccc(F)c(Nc2ccc3c(c2)CCCCC3=O)c1)c1cccc(F)c1` [Compound 109], the Residual activity in [1] (1.0E-05 M) is 108 % of control; in assay [1] (1.0E-06 M), 99 % of control; in assay [2] (1.0E-05 M), 91 % of control; in assay [2] (1.0E-06 M) it was 96 % of control; in assay [3] (1.0E-05 M), 93 % of control; in assay [3] (1.0E-06 M), 95 % of control. Further, the Residual activity is 80 % of control in assay [4] (1.0E-05 M); 87 % of control in assay [4] (1.0E-06 M); 91 % of control in assay [5] (1.0E-05 M); 88 % of control in assay [5] (1.0E-06 M); 82 % of control in [6] (1.0E-05 M); 91 % of control in assay [6] (1.0E-06 M). Further, the Residual activity in [7] (1.0E-05 M) is 80 % of control; in assay [7] (1.0E-06 M) it was 84 % of control; in assay [8] (1.0E-05 M), 93 % of control; in assay [8] (1.0E-06 M), 87 % of control; in assay [9] (1.0E-05 M), 100 % of control; in assay [9] (1.0E-06 M), 103 % of control. For the same compound, the Residual activity in assay [10] (1.0E-05 M) is reported as 87 % of control; in assay [10] (1.0E-06 M), 98 % of control.
